# Measurements from ChEMBL document CHEMBL3885881, “DrugMatrix”.
# Organism: Rattus norvegicus
# Experiment: DrugMatrix - Regimen: Daily Repeat
# Type: toxicity, organism-based, Sprague-Dawley
# Design: regimen Daily Repeat, gender Male, age 6-8 weeks
# Conditions: in vivo, po, route oral GAVAGE, […]; for ABSOLUTE BASOPHIL / ABSOLUTE EOSINOPHIL / ABSOLUTE LYMPHOCYTE / ABSOLUTE MONOCYTE / ABSOLUTE SEGMENTED NEUTROPHIL / BASOPHIL / EOSINOPHIL / ERYTHROCYTE COUNT / HEMATOCRIT / HEMOGLOBIN / LEUKOCYTE COUNT / LYMPHOCYTE / MEAN CORPUSCULAR HEMOGLOBIN / MEAN CORPUSCULAR HEMOGLOBIN CONCENTRATION / MEAN CORPUSCULAR VOLUME / MONOCYTE / NEUTROPHIL / NUCLEATED RED BLOOD CELLS / PLATELET COUNT: tissue Blood; for ALANINE AMINOTRANSFERASE / ALBUMIN / ALKALINE PHOSPHATASE / ASPARTATE AMINOTRANSFERASE / BLOOD UREA NITROGEN / CARBON DIOXIDE / CHLORIDE / CHOLESTEROL / CREATINE PHOSPHOKINASE / CREATININE / GLUCOSE / LACTATE DEHYDROGENASE / LIPASE / PHOSPHORUS / POTASSIUM / SODIUM / TOTAL BILIRUBIN / TOTAL PROTEIN / URIC ACID: tissue Plasma
# [1] = 0 mg/kg, 72 h, dose level Control, time 3 day
# [2] = 0 mg/kg, 120 h, dose level Control, time 5 day
# [3] = 1 mg/kg, 72 h, dose level Low, time 3 day
compound,measurement,setting,value
C[C@H]1O[C@@H](O[C@H]2[C@@H](O)C[C@H](O[C@H]3[C@@H](O)C[C@H](O[C@H]4CC[C@@]5(C)[C@H](CC[C@@H]6[C@@H]5CC[C@]5(C)[C@@H](C7=CC(=O)OC7)CC[C@]65O)C4)O[C@@H]3C)O[C@@H]2C)C[C@H](O)[C@@H]1O [DIGITOXIN],ABSOLUTE BASOPHIL,[1],0 CELLS/uL
same,ABSOLUTE EOSINOPHIL,[1],13.67 CELLS/uL
same,ABSOLUTE LYMPHOCYTE,[1],10069.5 CELLS/uL
same,ABSOLUTE MONOCYTE,[1],50 CELLS/uL
same,ABSOLUTE SEGMENTED NEUTROPHIL,[1],516.83 CELLS/uL
same,BASOPHIL,[1],0%
same,EOSINOPHIL,[1],0.17%
same,ERYTHROCYTE COUNT,[1],5.44 x10E6/uL
same,HEMATOCRIT,[1],33.88%
same,HEMOGLOBIN,[1],13.23 G/DL
same,LEUKOCYTE COUNT,[1],10.65 x10E3/uL
same,LYMPHOCYTE,[1],94.67%
same,MEAN CORPUSCULAR HEMOGLOBIN,[1],24.37 pg
same,MEAN CORPUSCULAR HEMOGLOBIN CONCENTRATION,[1],39.05 G/DL
same,MEAN CORPUSCULAR VOLUME,[1],62.38 fL
same,MONOCYTE,[1],0.67%
same,NEUTROPHIL,[1],4.5%
same,NUCLEATED RED BLOOD CELLS,[1],0.33 /100WBC
same,PLATELET COUNT,[1],414.5 x10E3/uL
same,ALANINE AMINOTRANSFERASE,[1],72 u/L
same,ALBUMIN,[1],3.75 G/DL
same,ALKALINE PHOSPHATASE,[1],375 u/L
same,ASPARTATE AMINOTRANSFERASE,[1],87.5 u/L
same,BLOOD UREA NITROGEN,[1],14 mg/dL
same,CARBON DIOXIDE,[1],27.5 mmol/L
same,CHLORIDE,[1],95.83 MEQ/L
same,CHOLESTEROL,[1],68.5 mg/dL
same,CREATINE PHOSPHOKINASE,[1],284.33 u/L
same,CREATININE,[1],0.16 mg/dL
same,GLUCOSE,[1],156.67 mg/dL
same,LACTATE DEHYDROGENASE,[1],101.83 u/L
same,LIPASE,[1],9.67 u/L
same,PHOSPHORUS,[1],10.33 mg/dL
same,POTASSIUM,[1],5.22 MEQ/L
same,SODIUM,[1],137.67 MEQ/L
same,TOTAL BILIRUBIN,[1],0.13 mg/dL
same,TOTAL PROTEIN,[1],5.43 G/DL
same,URIC ACID,[1],0.8 mg/dL
same,ABSOLUTE BASOPHIL,[2],0 CELLS/uL
same,ABSOLUTE EOSINOPHIL,[2],20.67 CELLS/uL
same,ABSOLUTE LYMPHOCYTE,[2],11518.33 CELLS/uL
same,ABSOLUTE MONOCYTE,[2],47 CELLS/uL
same,ABSOLUTE SEGMENTED NEUTROPHIL,[2],614 CELLS/uL
same,BASOPHIL,[2],0%
same,EOSINOPHIL,[2],0.17%
same,ERYTHROCYTE COUNT,[2],5.61 x10E6/uL
same,HEMATOCRIT,[2],34.25%
same,HEMOGLOBIN,[2],13.38 G/DL
same,LEUKOCYTE COUNT,[2],12.2 x10E3/uL
same,LYMPHOCYTE,[2],94.33%
same,MEAN CORPUSCULAR HEMOGLOBIN,[2],23.83 pg
same,MEAN CORPUSCULAR HEMOGLOBIN CONCENTRATION,[2],39.08 G/DL
same,MEAN CORPUSCULAR VOLUME,[2],61.03 fL
same,MONOCYTE,[2],0.33%
same,NEUTROPHIL,[2],5.17%
same,NUCLEATED RED BLOOD CELLS,[2],0 /100WBC
same,PLATELET COUNT,[2],941.83 x10E3/uL
same,ALANINE AMINOTRANSFERASE,[2],68.83 u/L
same,ALBUMIN,[2],4.12 G/DL
same,ALKALINE PHOSPHATASE,[2],492.67 u/L
same,ASPARTATE AMINOTRANSFERASE,[2],83.33 u/L
same,BLOOD UREA NITROGEN,[2],14 mg/dL
same,CARBON DIOXIDE,[2],37 mmol/L
same,CHLORIDE,[2],98.67 MEQ/L
same,CHOLESTEROL,[2],56.5 mg/dL
same,CREATINE PHOSPHOKINASE,[2],167.33 u/L
same,CREATININE,[2],0.17 mg/dL
same,GLUCOSE,[2],157.5 mg/dL
same,LACTATE DEHYDROGENASE,[2],104.83 u/L
same,LIPASE,[2],10 u/L
same,PHOSPHORUS,[2],10.43 mg/dL
same,POTASSIUM,[2],5.46 MEQ/L
same,SODIUM,[2],143.87 MEQ/L
same,TOTAL BILIRUBIN,[2],0.17 mg/dL
same,TOTAL PROTEIN,[2],5.72 G/DL
same,URIC ACID,[2],0.85 mg/dL
same,ABSOLUTE BASOPHIL,[3],0 CELLS/uL
same,ABSOLUTE EOSINOPHIL,[3],39.67 CELLS/uL
same,ABSOLUTE LYMPHOCYTE,[3],11912.33 CELLS/uL
same,ABSOLUTE MONOCYTE,[3],73.33 CELLS/uL
same,ABSOLUTE SEGMENTED NEUTROPHIL,[3],641.33 CELLS/uL
same,BASOPHIL,[3],0%
same,EOSINOPHIL,[3],0.33%
same,ERYTHROCYTE COUNT,[3],5.7 x10E6/uL
same,HEMATOCRIT,[3],35.6%
same,HEMOGLOBIN,[3],13.77 G/DL
same,LEUKOCYTE COUNT,[3],12.67 x10E3/uL
same,LYMPHOCYTE,[3],93.67%
same,MEAN CORPUSCULAR HEMOGLOBIN,[3],24.13 pg
same,MEAN CORPUSCULAR HEMOGLOBIN CONCENTRATION,[3],38.7 G/DL
same,MEAN CORPUSCULAR VOLUME,[3],62.33 fL
same,MONOCYTE,[3],0.67%
same,NEUTROPHIL,[3],5.33%
same,NUCLEATED RED BLOOD CELLS,[3],0 /100WBC
same,PLATELET COUNT,[3],661.33 x10E3/uL
same,ALANINE AMINOTRANSFERASE,[3],72.67 u/L
same,ALBUMIN,[3],3.77 G/DL
same,ALKALINE PHOSPHATASE,[3],495.33 u/L
same,ASPARTATE AMINOTRANSFERASE,[3],95.67 u/L
same,BLOOD UREA NITROGEN,[3],12 mg/dL
same,CARBON DIOXIDE,[3],25.67 mmol/L
same,CHLORIDE,[3],96.33 MEQ/L
same,CHOLESTEROL,[3],70.67 mg/dL
same,CREATINE PHOSPHOKINASE,[3],398.33 u/L
same,CREATININE,[3],0.17 mg/dL
same,GLUCOSE,[3],146.67 mg/dL
same,LACTATE DEHYDROGENASE,[3],188.67 u/L
same,LIPASE,[3],11 u/L
same,PHOSPHORUS,[3],10.1 mg/dL
same,POTASSIUM,[3],5.78 MEQ/L
same,SODIUM,[3],137.9 MEQ/L
same,TOTAL BILIRUBIN,[3],0.13 mg/dL
same,TOTAL PROTEIN,[3],5.57 G/DL
